# According to patent publication US20250236642A1, “PHARMACEUTICAL COMPOSITION FOR TREATMENT OR PREVENTION OF ADULT T-CELL LEUKEMIA” (NEC Corporation, priority 2022, published 2025):
# Read-outs that look alike come from different tables or passages of the source. No end group written: not given here.
# Assays:
# HLA-A*24:02 molecule = HLA-A*24:02 molecule (Homo sapiens, UniProt P04439, D101N/D140Y/D185E/E176V/E190D/F33S/G103R/G107R/I119L/I121M/I306V/K335N/L105A/L180Q/L300P/N151K/N90K/Q86E/Q94H/R106L/R138H/R89G/T104I/T345S/V100E/W191G/Y123F); assay: Binding of peptide to HLA-A*24:02 molecule using C1R-A24 cells
# Experimental: Measurement of binding ability of a peptide to an HLA-A*24:02 molecule, which is a product of an HLA-A*24:02 gene, was performed using C1R-A24 cells expressing an HLA-A*24:02 molecule (Cells created by Professor Masafumi Takiguchi, Kumamoto University, was provided by Assistant Professor Masaki Yasukawa, Ehime University, with permission).
# First, the C1R-A24 cells were exposed to acidic conditions at pH 3.3 for 30 seconds to dissociate and remove an endogenous peptide originally binding to an HLA-A*24:02 molecule and light chain β2m commonly associated with an HLA class I molecule. After neutralization, purified β2m was added to the C1R-A24 cells, and the mixture was added to a peptide dilution series and incubated on ice for four hours.
# Thereafter, the number of MHC-peps for each C1R-A24 cell (proportional to a fluorescence intensity of the fluorescent antibody) was quantitatively measured using a fluorescence cell analyzer FACScan (Becton-Dickinson).
# HLA-A*02:01 molecule = target: T1, HLA-A*02:01 molecule (Homo sapiens, UniProt P04439, D140Y/D185E/D98H/E176V/E277Q/G131W/G231S/I119V/I121R/I166T/I218V/L300P/L318F/N151K/N90K/P208A/P217A/Q86G/Q94H/R138H/R169H/T345S); assay: Binding of peptide to HLA-A*02:01 molecule using cell line T2
# T1 construct: using a cell line T2 (purchased from ATCC) expressing an HLA-A*02:01 molecule; host or cells: T2 cell line
# Experimental: Measurement of binding ability of a peptide to an HLA-A*02:01 molecule, which is a product of an HLA-A*02:01 gene, was performed using a cell line T2 (purchased from ATCC) expressing an HLA-A*02:01 molecule.
# T2 cells and purified β2m were added to a serial dilution series of a peptide whose binding ability was to be measured, and then the mixture was incubated at 37° C. for four hours. HLA-A*02:01 molecules whose expression level increased in a peptide concentration-dependent manner by this time point were stained using an association-type specific fluorescently labeled monoclonal antibody BB7.2.
# Thereafter, the amount of fluorescence per cell was measured with a flow cytometer, and a dissociation constant Kd value was calculated by the method disclosed in the article (Udaka et al., Immunogenetics, 51, 816-828, 2000) by the present inventor.
# HLA-A*02:06 molecule = target: T2, HLA-A*02:06 molecule (Homo sapiens, UniProt P04439, D140Y/D185E/D98H/E176V/E277Q/F33Y/G131W/G231S/I119V/I121R/I166T/I218V/L300P/L318F/N151K/N90K/P208A/P217A/Q86G/Q94H/R138H/R169H/T345S); assay: Binding of peptide to HLA-A*02:06 molecule using RA2.6 cells
# T2 construct: expressed in transfected cells; host or cells: RA2.6 cells (mouse TAP-deficient RMAS with HLA-A*02:06 cDNA)
# Experimental: Measurement of binding ability of a peptide to an HLA-A*02:06 molecule, which is a product of an HLA-A*02:06 gene, was performed using RA2.6 cells (a cell line newly created at Kochi University) obtained by introducing cDNA of the HLA-A*02:06 gene into RMAS, which is a mouse transporter associated with antigen processing (TAP)-deficient cell line.
# A fluorescently labeled monoclonal antibody BB7.2 that specifically recognizes a peptide binding type HLA-A*02:06 molecule was added thereto, and the mixture was incubated on ice for 20 minutes to stain the cells.
# [1] = Table 2, dissociation constant Kd value (−log Kd value), >−3.0 = no significant binding ability, read-out: Measured value of allele A*24:02 (converted)
# [2] = Table 4, Kd value (−log Kd value), smaller than −3 = binding property, read-out: Measured value of allele A*24:02 (converted)
# [3] = Table 2, dissociation constant Kd value (−log Kd value), >−3.0 = no significant binding ability, read-out: Measured value of allele A*02:01 (converted)
# [4] = Table 2, dissociation constant Kd value (−log Kd value), >−3.0 = no significant binding ability, read-out: Measured value of allele A*02:06 (converted)
Sequence,Kd (HLA-A*24:02 molecule; [1]) [µM],Kd (HLA-A*24:02 molecule; [2]) [µM],Kd (HLA-A*02:01 molecule; [3]) [µM],Kd (HLA-A*02:06 molecule; [4]) [µM],Kd (HLA-A*02:01 molecule) [µM],"Kd (HLA-A*24:02 molecule; Measured value of allele A*24:02, Table 2, dissociation constant Kd value (−log Kd value), >−3.0 = no significant binding ability) [µM]",Kd (HLA-A*02:06 molecule) [µM]
THLDAGTVE [compound 75],> 1000,> 1000,> 1000,> 1000,–,–,–
GRVMQIDGV [compound 68],23.4,–,> 1000,> 1000,–,–,–
ARHSTIPLV [compound 77],> 1000,> 1000,> 1000,> 1000,–,–,–
CLDEHQWQL [compound 9],1.36,–,0.216,0.474,–,–,–
GILSDHQQS [compound 74],> 1000,> 1000,> 1000,> 1000,–,–,–
SSLDPPKVL [compound 55],4.47,–,> 1000,> 1000,–,–,–
LPFSPSQFL [compound 60],448,–,> 1000,> 1000,–,–,–
LMEEHGATL [compound 13],5.98,–,12.1,2.1,–,–,–
CDLSSFEFF [compound 58],80.3,–,> 1000,> 1000,–,–,–
YPGWHSTTI [compound 52],2.18,–,–,> 1000,> 1000,–,–
GSPDEFSND [compound 72],> 1000,> 1000,> 1000,> 1000,–,–,–
HMAKVIEFL [compound 38],0.923,–,2.06,> 1000,–,–,–
LIEEHGATL [compound 40],> 1000,> 1000,31.9,15.3,–,–,–
ALAPPTAQL [compound 6],4.69,–,0.265,0.392,–,–,–
KFLEAFHEV [compound 8],0.133,–,1.17,1.56,–,–,–
CMIVHQGTI [compound 36],2.91,–,> 1000,42.4,–,–,–
MLPQTPSHL [compound 24],0.0716,–,2.64,109,–,–,–
LVITRKSFI [compound 30],3.47,–,97.6,243,–,–,–
AYRTCWIFS [compound 49],3.82,–,> 1000,> 1000,–,–,–
ALQFLIPRL [compound 22],–,–,–,–,1.26,10.9,1.45
LIITRKSFI [compound 29],2.5,–,78.1,230,–,–,–
ILSDHQQSQ [compound 70],> 1000,> 1000,> 1000,> 1000,–,–,–
LPPARHSTI [compound 76],> 1000,> 1000,> 1000,> 1000,–,–,–
LLNPNRQTI [compound 23],0.602,–,5.74,296,–,–,–
YLYDPPTTI [compound 4],0.692,–,0.583,1.36,–,–,–
FIDSDSSSW [compound 57],19.9,–,> 1000,> 1000,–,–,–
GTHLDAGTV [compound 51],> 1000,> 1000,> 1000,218,–,–,–
GYITLGKPH [compound 80],> 1000,> 1000,> 1000,> 1000,–,–,–
LHITRKSFI [compound 63],17.5,–,> 1000,> 1000,–,–,–
SPDEFSNDF [compound 73],> 1000,> 1000,> 1000,> 1000,–,–,–
